Measurements: ChEMBL document CHEMBL1201862, “PubChem BioAssay data set” (2004)
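Grown in 96-well plates, cells were treated for 48 hours with each compound at five concentrations. Insufficient inhibition: endpoint recorded as highest concentration tested. GI50 is the concentration that inhibits growth by half.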 Calls of active or inactive are those of the source. No stated cut-off is given here; in the data, active = GI50 up to about 1.1 µM and inactive = higher.

What was measured:
Experiment in all cases: DTP human tumour cell line panel, 48 h
NCI-H226 = test system: NCI-H226
SR = test system: SR
HT-29 = test system: HT-29
HCT-15 = test system: HCT-15
A549 = test system: A549
HL-60 = test system: HL-60
CCRF-CEM = test system: CCRF-CEM
SNB-75 = test system: SNB-75
OVCAR-8 = test system: OVCAR-8
SF-539 = test system: SF-539
UO-31 = test system: UO-31
OVCAR-4 = test system: OVCAR-4
Malme-3M = test system: Malme-3M
IGROV-1 = test system: IGROV-1
OVCAR-3 = test system: OVCAR-3
OVCAR-5 = test system: OVCAR-5
SK-MEL-2 = test system: SK-MEL-2
BT-549 = test system: BT-549
U-251 = test system: U-251
SNB-19 = test system: SNB-19
COLO 205 = test system: COLO 205
HOP-62 = test system: HOP-62
EKVX = test system: EKVX
PC-3 = test system: PC-3
RPMI-8226 = test system: RPMI-8226
HCT-116 = test system: HCT-116
UACC-257 = test system: UACC-257
MDA-MB-231 = test system: MDA-MB-231
TK-10 = test system: TK-10
SF-295 = test system: SF-295
SF-268 = test system: SF-268
MOLT-4 = test system: MOLT-4
HOP-92 = test system: HOP-92
SK-MEL-5 = test system: SK-MEL-5
CAKI-1 = test system: CAKI-1
T47D = test system: T47D
DU-145 = test system: DU-145
LOX IMVI = test system: LOX IMVI
MDA-MB-435 = test system: MDA-MB-435
SK-MEL-28 = test system: SK-MEL-28
NCI-H23 = test system: NCI-H23
UACC-62 = test system: UACC-62
A498 = test system: A498
ACHN = test system: ACHN
M14 = test system: M14
NCI/ADR-RES = test system: NCI/ADR-RES
SN12C = test system: SN12C
SK-OV-3 = test system: SK-OV-3
NCI-H460 = test system: NCI-H460
K562 = test system: K562
KM12 = test system: KM12
Hs-578T = test system: Hs-578T
786-0 = test system: 786-0
HCC 2998 = test system: HCC 2998
MCF7 = test system: MCF7
RXF 393 = test system: RXF 393
NCI-H522 = test system: NCI-H522
SW-620 = test system: SW-620
MDA-N = test system: MDA-N

CCOC(=O)C(NC(=O)CC)(Nc1ccc(S(=O)(=O)Nc2nc(C)cc(C)n2)cc1)C(F)(F)F (stereo unspecified)
GI50 (NCI-H226): > 100 µM (inactive)
GI50 (SR): > 100 µM (inactive)
GI50 (HT-29): > 100 µM (inactive)
GI50 (HCT-15): > 100 µM
GI50 (A549): > 100 µM (inactive)
GI50 (HL-60): > 100 µM (inactive)
GI50 (CCRF-CEM): > 100 µM (inactive)
GI50 (SNB-75): > 100 µM (inactive)
GI50 (OVCAR-8): > 100 µM (inactive)
GI50 (SF-539): > 100 µM (inactive)
GI50 (UO-31): > 100 µM (inactive)
GI50 (OVCAR-4): > 100 µM (inactive)
GI50 (Malme-3M): > 100 µM (inactive)
GI50 (IGROV-1): > 100 µM (inactive)
GI50 (OVCAR-3): > 100 µM (inactive)
GI50 (OVCAR-5): > 100 µM (inactive)
GI50 (SK-MEL-2): > 100 µM (inactive)
GI50 (BT-549): > 100 µM (inactive)
GI50 (U-251): > 100 µM (inactive)
GI50 (SNB-19): > 100 µM (inactive)
GI50 (COLO 205): > 100 µM (inactive)
GI50 (HOP-62): > 100 µM (inactive)
GI50 (EKVX): > 100 µM (inactive)
GI50 (PC-3): > 100 µM (inactive)
GI50 (RPMI-8226): > 100 µM (inactive)
GI50 (HCT-116): > 100 µM (inactive)
GI50 (UACC-257): > 100 µM (inactive)
GI50 (MDA-MB-231): > 100 µM (inactive)
GI50 (TK-10): > 100 µM (inactive)
GI50 (SF-295): > 100 µM (inactive)
GI50 (SF-268): > 100 µM (inactive)
GI50 (MOLT-4): > 100 µM (inactive)
GI50 (HOP-92): > 100 µM (inactive)
GI50 (SK-MEL-5): > 100 µM (inactive)
GI50 (CAKI-1): > 100 µM (inactive)
GI50 (T47D): > 100 µM (inactive)
GI50 (DU-145): > 100 µM (inactive)
GI50 (LOX IMVI): > 100 µM (inactive)
GI50 (MDA-MB-435): > 100 µM (inactive)
GI50 (SK-MEL-28): > 100 µM (inactive)
GI50 (NCI-H23): > 100 µM (inactive)
GI50 (UACC-62): > 100 µM (inactive)
GI50 (A498): > 100 µM (inactive)
GI50 (ACHN): > 100 µM (inactive)
GI50 (M14): > 100 µM (inactive)
GI50 (NCI/ADR-RES): > 100 µM (inactive)
GI50 (SN12C): > 100 µM (inactive)
GI50 (SK-OV-3): > 100 µM (inactive)
GI50 (NCI-H460): > 100 µM (inactive)
GI50 (K562): > 100 µM (inactive)
GI50 (KM12): > 100 µM (inactive)
GI50 (Hs-578T): > 100 µM (inactive)
GI50 (786-0): > 100 µM (inactive)
GI50 (HCC 2998): > 100 µM (inactive)
GI50 (MCF7): 36.6 µM (inactive)
GI50 (RXF 393): > 100 µM (inactive)
GI50 (NCI-H522): 31.6 µM (inactive)
GI50 (SW-620): > 100 µM (inactive)
GI50 (MDA-N): > 100 µM (inactive)

CC1=NN(C(=O)CC(=O)Nc2ccccc2)C(=O)C1/N=N/c1ccc(C(=O)O)cc1 (stereo unspecified)
GI50 (SR): 50.6 µM (inactive)
GI50 (HT-29): > 100 µM (inactive)
GI50 (HCT-15): > 100 µM
GI50 (A549): > 100 µM (inactive)
GI50 (HL-60): > 100 µM (inactive)
GI50 (CCRF-CEM): > 100 µM (inactive)
GI50 (SNB-75): > 100 µM (inactive)
GI50 (OVCAR-8): > 100 µM (inactive)
GI50 (SF-539): 84.7 µM (inactive)
GI50 (UO-31): > 100 µM (inactive)
GI50 (OVCAR-4): > 100 µM (inactive)
GI50 (Malme-3M): > 100 µM (inactive)
GI50 (IGROV-1): > 100 µM (inactive)
GI50 (OVCAR-3): > 100 µM (inactive)
GI50 (OVCAR-5): > 100 µM (inactive)
GI50 (SK-MEL-2): > 100 µM (inactive)
GI50 (BT-549): > 100 µM (inactive)
GI50 (U-251): 97.3 µM (inactive)
GI50 (SNB-19): 80.5 µM (inactive)
GI50 (COLO 205): > 100 µM (inactive)
GI50 (HOP-62): 75.9 µM (inactive)
GI50 (EKVX): > 100 µM (inactive)
GI50 (PC-3): > 100 µM (inactive)
GI50 (RPMI-8226): > 100 µM (inactive)
GI50 (HCT-116): > 100 µM (inactive)
GI50 (UACC-257): > 100 µM (inactive)
GI50 (MDA-MB-231): > 100 µM (inactive)
GI50 (TK-10): > 100 µM (inactive)
GI50 (SF-295): > 100 µM (inactive)
GI50 (SF-268): 77.8 µM (inactive)
GI50 (MOLT-4): > 100 µM (inactive)
GI50 (HOP-92): 22.1 µM (inactive)
GI50 (SK-MEL-5): > 100 µM (inactive)
GI50 (CAKI-1): > 100 µM (inactive)
GI50 (T47D): 62.7 µM (inactive)
GI50 (DU-145): > 100 µM (inactive)
GI50 (LOX IMVI): > 100 µM (inactive)
GI50 (MDA-MB-435): > 100 µM (inactive)
GI50 (SK-MEL-28): > 100 µM (inactive)
GI50 (NCI-H23): > 100 µM (inactive)
GI50 (UACC-62): > 100 µM (inactive)
GI50 (A498): > 100 µM (inactive)
GI50 (ACHN): > 100 µM (inactive)
GI50 (M14): > 100 µM (inactive)
GI50 (NCI/ADR-RES): > 100 µM (inactive)
GI50 (SN12C): > 100 µM (inactive)
GI50 (NCI-H460): > 100 µM (inactive)
GI50 (K562): > 100 µM (inactive)
GI50 (KM12): > 100 µM (inactive)
GI50 (Hs-578T): 78.7 µM (inactive)
GI50 (786-0): > 100 µM (inactive)
GI50 (HCC 2998): > 100 µM (inactive)
GI50 (MCF7): > 100 µM (inactive)
GI50 (RXF 393): > 100 µM (inactive)
GI50 (NCI-H522): > 100 µM (inactive)
GI50 (SW-620): > 100 µM (inactive)
GI50 (MDA-N): > 100 µM (inactive)
